US10851116B2, “Bicyclic amines as novel JAK kinase inhibitors” (LEO Pharma A/S, priority 2017, dated 2020)
pEC50: −log10 of the molar value.

Experiments:
[1] = in vitro metabolic stability in human liver microsomes; format: in vitro ADME; conditions: compound 0.5 μM, human liver microsomes 0.5 mg/mL, NADPH, 40 min, 37° C.; for CLint scaled at 0.5 μM: human, liver microsomes, read-out: Human liver microsome Clapp (apparent intrinsic clearance)
Protocol: To assess the in vitro metabolic stability, the compounds (0.5 μM) were incubated in duplicates with human liver microsomes (0.5 mg/mL) in phosphate buffer and NADPH, in 96-well plates for 40 min (37° C.), using a liquid handling robot (Hamilton Microlab Star). Sample aliquots were taken at 0, 5, 10, 20 and 40 min, and dispensed into cold acetonitrile, in order to stop the reactions. The plates were centrifuged for 30 minutes before the samples were analyzed using liquid chromatography coupled to a time-of-flight mass spectrometer (AB Sciex API5600). The compound depletion over time was used to estimate the elimination rate constant, from which the apparent intrinsic clearance, Clapp, was calculated and the values are listed in table 2.

TYK2 = TYK2 (Homo sapiens (Human), UniProt P29597); test: JAK kinase assay (HTRF), TYK2; format: biochemical; conditions: catalytic domain (aa 871-1187), GST-tag, ATP at Km (13 μM)
Sequence of TYK2 (P29597 871-1187): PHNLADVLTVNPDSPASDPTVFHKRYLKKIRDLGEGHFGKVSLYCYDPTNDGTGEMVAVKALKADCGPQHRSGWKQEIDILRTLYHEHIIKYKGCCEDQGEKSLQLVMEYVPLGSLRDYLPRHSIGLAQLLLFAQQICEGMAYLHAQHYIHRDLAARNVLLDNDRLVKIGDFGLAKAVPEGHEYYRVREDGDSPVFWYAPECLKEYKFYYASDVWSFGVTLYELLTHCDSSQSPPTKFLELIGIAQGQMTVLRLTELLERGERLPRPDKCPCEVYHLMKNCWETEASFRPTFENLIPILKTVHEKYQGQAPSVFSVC
Protocol: (§1) Human baculovirus-expressed JAK1, 2, 3 and TYK2 were purchased from Carna Biosciences, Inc. All four purified enzymes contain only the catalytic domain. JAK1 (aa 850-1154) and TYK2 (aa 871-1187) are expressed with an N-terminally fused GST-tag, and JAK2 and JAK3 with an N-terminally fused His-tag.
(§2) Inhibition of phosphorylation of a synthetic peptide was measured in an HTRF-based assay using the TK substrate-Biotin from the Cisbio HTRFKinEASE TK kit. First, 2 μl of TK solution (TK substrate-biotin in kinase buffer [1× enzymatic buffer from HTRFKinEASE TK kit, 1 mM DTT]) is added to a plate containing 1 μl prediluted compound (final assay concentration DMSO: 0.75%). Then, 5 μl kinase-ATP mix (prepared in kinase buffer) is added to the wells and the plates are incubated at RT for 20-30 min. For all four kinases a concentration of ATP that corresponded to the Km for ATP was used. The final concentrations of buffers, substrate, kinase and ATP were: JAK1: 50 mM Hepes buffer pH 7.0, 0.01% BSA, 10 mM MgCl2, 1 mM DTT, 7 μM ATP, 50 nM SEB, 1 μM TK Substrate-Biotin and 5 ng JAK1; JAK2: 50 mM Hepes buffer pH 7.0, 0.01% BSA, 5 mM MgCl2, 1 mM DTT, 4 μM ATP, 1 μM TK Substrate-Biotin and 0.1 ng JAK2; JAK3: 50 mM Hepes buffer pH 7.0, 0.01% BSA, 5 mM MgCl2, 1 mM DTT, 2 μM ATP, 1 μM TK Substrate-Biotin and 0.3 ng JAK3; TYK2: 50 mM Hepes buffer pH 7.0, 0.01% BSA, 5 mM MgCl2, 1 mM DTT, 13 μM ATP, 50 nM SEB, 1 μM TK Substrate-Biotin and 0.8 ng TYK2. Thereafter, the kinase reaction is stopped by adding 4 μl detection mix (final concentrations: 50 mM Hepes buffer pH 7.0, 0.01% BSA, 0.8 M KF, 20 mM EDTA, 42 nM Streptavidin-XL665 and 1:400 STK Ab Cryptate) and the plates are incubated overnight in the dark. The HTRF signal is read using an Envision plate reader.

JAK2 = JAK2 (Homo sapiens (Human), UniProt O60674); test: JAK kinase assay (HTRF), JAK2; format: biochemical; conditions: catalytic domain, His-tag, ATP at Km (4 μM)
Sequence of JAK2 (O60674 849-1124): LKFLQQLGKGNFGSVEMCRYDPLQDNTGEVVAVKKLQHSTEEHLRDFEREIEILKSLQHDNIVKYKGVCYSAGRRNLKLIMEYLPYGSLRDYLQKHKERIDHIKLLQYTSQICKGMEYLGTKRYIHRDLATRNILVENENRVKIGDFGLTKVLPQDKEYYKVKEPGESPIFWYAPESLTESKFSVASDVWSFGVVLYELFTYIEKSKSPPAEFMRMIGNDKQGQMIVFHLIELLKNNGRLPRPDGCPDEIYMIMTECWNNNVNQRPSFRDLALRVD
Protocol: as §1, §2

JAK1 = JAK1 (Homo sapiens (Human), UniProt P23458); test: JAK kinase assay (HTRF), JAK1; format: biochemical; conditions: catalytic domain (aa 850-1154), GST-tag, ATP at Km (7 μM)
Sequence of JAK1 (P23458 850-1154): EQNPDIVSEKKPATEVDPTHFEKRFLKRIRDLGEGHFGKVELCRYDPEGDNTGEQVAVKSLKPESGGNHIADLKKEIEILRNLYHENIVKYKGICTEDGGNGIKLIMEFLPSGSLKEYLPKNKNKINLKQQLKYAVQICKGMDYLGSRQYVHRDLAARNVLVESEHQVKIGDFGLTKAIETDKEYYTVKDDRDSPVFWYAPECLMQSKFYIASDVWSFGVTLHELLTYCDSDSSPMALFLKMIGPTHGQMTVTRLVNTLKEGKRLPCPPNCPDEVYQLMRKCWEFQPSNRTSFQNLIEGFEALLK
Protocol: as §1, §2

JAK3 = JAK3 (Homo sapiens (Human), UniProt P52333); test: JAK kinase assay (HTRF), JAK3; format: biochemical; conditions: catalytic domain, His-tag, ATP at Km (2 μM)
Sequence of JAK3 (P52333 822-1111): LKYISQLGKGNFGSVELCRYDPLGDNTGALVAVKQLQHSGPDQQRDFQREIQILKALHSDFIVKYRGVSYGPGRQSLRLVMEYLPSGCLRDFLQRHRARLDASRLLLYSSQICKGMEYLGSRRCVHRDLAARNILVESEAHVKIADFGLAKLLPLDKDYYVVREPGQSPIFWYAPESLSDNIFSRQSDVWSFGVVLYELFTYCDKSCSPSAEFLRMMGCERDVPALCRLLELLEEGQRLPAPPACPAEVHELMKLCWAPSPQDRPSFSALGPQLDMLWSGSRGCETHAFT
Protocol: as §1, §2

Row | Structure (SMILES) | CLint scaled at 0.5 μM [1] | pEC50 (TYK2) | pEC50 (JAK2) | pEC50 (JAK1) | pEC50 (JAK3) | Human liver microsome Clapp (apparent intrinsic clearance) [1]
1 | CC12CN(c3ccc(C#N)cn3)C[C@@H]1CCN(c1ncnc3[nH]ccc13)C2 (stereo in doubt) [Example 34, 6-[(3aR,7aR)-3a-methyl-5-(7H-pyrrolo[2,3-d]pyrimidin-4-yl)-1,3,4,6,7,7a-hexahydropyrrolo[3,4-c]pyridin-2-yl]pyridine-3-carbonitrile] | 136 mL/min/kg | 5.15 | 6.03 | 6.72 | 5.93 | 
2 | C[C@]12CN(C#N)CC[C@H]1CCN(c1ncnc3[nH]ccc13)C2 [Example 1, (4aR,8aS)-8a-methyl-7-(7H-pyrrolo[2,3-d]pyrimidin-4-yl)-3,4,4a,5,6,8-hexahydro-1H-2,7-naphthyridine-2-carbonitrile] | 54 mL/min/kg | 7.89 | 8.40 | 9.00 | 7.82 | 
3 | C[C@@]12CN(C#N)CC[C@@H]1CCN(c1ncnc3[nH]ccc13)C2 [Example 3, (4aS,8aR)-8a-methyl-7-(7H-pyrrolo[2,3-d]pyrimidin-4-yl)-3,4,4a,5,6,8-hexahydro-1H-2,7-naphthyridine-2-carbonitrile] | 60 mL/min/kg | 5.83 | 6.37 | 6.63 | 6.03 | 
4 | CC[C@@]12CN(c3ncnc4[nH]ccc34)CC[C@@H]1CCN(S(N)(=O)=O)C2 [Example 18, (4aR,8aS)-8a-ethyl-7-(7H-pyrrolo[2,3-d]pyrimidin-4-yl)-3,4,4a,5,6,8-hexahydro-1H-2,7-naphthyridine-2-sulfonamide] |  | 7.77 | 8.52 | 8.70 | 8.70 | 127 mL/min/kg
5 | CC[C@]12CN(C#N)CC[C@H]1CCN(c1ncnc3[nH]ccc13)C2 [Example 22, (4aR,8aS)-8a-ethyl-7-(7H-pyrrolo[2,3-d]pyrimidin-4-yl)-3,4,4a,5,6,8-hexahydro-1H-2,7-naphthyridine-2-carbonitrile] | 185 mL/min/kg | 8.22 | 8.70 | 9.00 | 8.22 | 
6 | C[C@]12CN(C#N)C[C@H]1CCN(c1ncnc3[nH]ccc13)C2 [Example 29, (3aS,7aS)-3a-methyl-5-(7H-pyrrolo[2,3-d]pyrimidin-4-yl)-1,3,4,6,7,7a-hexahydropyrrolo[3,4-c]pyridine-2-carbonitrile] | 10 mL/min/kg | 6.91 | 7.46 | 8.00 | 6.93 | 
